Experimental data reported in patent US20240246932A1 (Merck Sharp & Dohme LLC, priority 2021, published 2024).

Biological target: human NaV 1.8 channels stably expressed in HEK 293 cells (Homo sapiens (Human), UniProt Q9Y5Y9)
Assay: Nav1.8 Qube automated patch-clamp assay
Format: cell-based
Details: human NaV1.8 in HEK 293 cells, whole-cell voltage clamp, room temperature; read-out: IC50 values (nM) for Examples in the Nav1.8 Qube Assay
In short: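 Whole-cell voltage clamp at room temperature on HEK293 cells; from −90 mV, a 10 s 1 Hz train of 20 ms pulses to 10 mV (repolarising to −67 mV) was applied. Peak currents at pulses 1 and 10 gave resting- and inactivated-state inhibition; IC50 fitted by Hill equation. Internal CsF/CsCl buffer.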

human NaV 1.8 channels stably expressed in HEK 293 cells, sequence (Q9Y5Y9 whole entry): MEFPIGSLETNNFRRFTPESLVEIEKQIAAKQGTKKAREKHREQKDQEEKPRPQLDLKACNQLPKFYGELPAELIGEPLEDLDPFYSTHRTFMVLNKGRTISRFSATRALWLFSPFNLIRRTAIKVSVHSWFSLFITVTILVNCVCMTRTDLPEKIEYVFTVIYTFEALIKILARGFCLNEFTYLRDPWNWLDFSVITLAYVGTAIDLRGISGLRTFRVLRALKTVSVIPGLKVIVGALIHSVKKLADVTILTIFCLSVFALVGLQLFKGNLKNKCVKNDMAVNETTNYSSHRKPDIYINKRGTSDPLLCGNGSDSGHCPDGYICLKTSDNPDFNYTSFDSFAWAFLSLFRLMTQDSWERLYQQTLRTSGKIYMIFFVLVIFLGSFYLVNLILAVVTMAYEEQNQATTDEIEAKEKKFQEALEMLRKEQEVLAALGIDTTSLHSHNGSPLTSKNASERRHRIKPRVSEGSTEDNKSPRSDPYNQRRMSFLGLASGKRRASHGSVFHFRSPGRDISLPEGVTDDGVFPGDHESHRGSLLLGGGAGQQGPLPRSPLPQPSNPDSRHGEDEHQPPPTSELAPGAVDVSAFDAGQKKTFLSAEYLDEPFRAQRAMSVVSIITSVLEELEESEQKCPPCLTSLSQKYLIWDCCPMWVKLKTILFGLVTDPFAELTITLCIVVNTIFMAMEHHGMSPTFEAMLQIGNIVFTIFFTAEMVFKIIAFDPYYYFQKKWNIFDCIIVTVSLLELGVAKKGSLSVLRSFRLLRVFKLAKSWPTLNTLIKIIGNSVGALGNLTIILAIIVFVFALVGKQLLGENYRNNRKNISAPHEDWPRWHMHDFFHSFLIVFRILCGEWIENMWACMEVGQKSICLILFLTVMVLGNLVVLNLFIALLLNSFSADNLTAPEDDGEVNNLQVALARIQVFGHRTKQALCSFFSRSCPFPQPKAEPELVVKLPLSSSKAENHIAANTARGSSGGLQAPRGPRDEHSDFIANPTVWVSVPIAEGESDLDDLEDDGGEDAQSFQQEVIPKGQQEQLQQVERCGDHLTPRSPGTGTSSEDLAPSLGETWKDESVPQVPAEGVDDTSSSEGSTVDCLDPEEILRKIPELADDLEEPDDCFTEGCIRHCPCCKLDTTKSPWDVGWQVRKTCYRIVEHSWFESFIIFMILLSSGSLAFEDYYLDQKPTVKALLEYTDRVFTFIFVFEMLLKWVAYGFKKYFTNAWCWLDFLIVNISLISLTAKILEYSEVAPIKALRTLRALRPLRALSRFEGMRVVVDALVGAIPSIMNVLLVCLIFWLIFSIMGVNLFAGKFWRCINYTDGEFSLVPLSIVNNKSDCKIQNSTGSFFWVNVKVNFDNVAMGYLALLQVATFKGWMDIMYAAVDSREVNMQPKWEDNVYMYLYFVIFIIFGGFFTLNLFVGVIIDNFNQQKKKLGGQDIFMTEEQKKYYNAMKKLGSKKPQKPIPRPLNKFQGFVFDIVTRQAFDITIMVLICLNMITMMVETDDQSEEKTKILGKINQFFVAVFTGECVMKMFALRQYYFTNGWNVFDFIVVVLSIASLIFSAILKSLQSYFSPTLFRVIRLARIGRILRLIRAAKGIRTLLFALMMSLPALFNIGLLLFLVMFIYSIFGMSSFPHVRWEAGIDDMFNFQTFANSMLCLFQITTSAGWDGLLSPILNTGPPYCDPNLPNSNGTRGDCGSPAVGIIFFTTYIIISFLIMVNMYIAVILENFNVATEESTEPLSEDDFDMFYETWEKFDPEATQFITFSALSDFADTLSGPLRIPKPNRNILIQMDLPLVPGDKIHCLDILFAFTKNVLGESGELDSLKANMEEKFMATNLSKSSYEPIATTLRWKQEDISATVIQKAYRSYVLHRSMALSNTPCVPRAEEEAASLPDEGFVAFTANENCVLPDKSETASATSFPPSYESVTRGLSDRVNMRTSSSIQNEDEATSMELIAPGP

SMILES | IC50 [nM]
C[C@@H]1C(=O)NCCN1C(=O)NC(c1ccc(C(F)(F)F)nc1)c1ccc(F)c(Cl)c1 (single isomer, unassigned) [Example 16B, (2R)-N-((S or R)-(3-chloro-4-fluorophenyl)(6-(trifluoromethyl)pyridin-3-yl)methyl)-2-methyl-3-oxopiperazine-1-carboxamide] | 31.7
C[C@@H]1C(=O)NCCN1C(=O)NC(c1ccc(F)c(Cl)c1)c1cc(C(F)(F)F)nn1C (single isomer, unassigned) [Example 86B, (2R)-N-((S or R)-(3-chloro-4-fluoro-phenyl)(1-methyl-3-(trifluoro-methyl)-1H-pyrazol-5-yl)methyl)-2-methyl-3-oxo-piperazine-1-carboxamide] | 154
C[C@@H]1C(=O)NCCN1C(=O)NC(c1ccc(F)c(F)c1)c1ccc(F)c(C(F)(F)F)n1 (single isomer, unassigned) [Example 49A, (2R)-N-((R or S)-(3,4-difluorophenyl)(5-fluoro-6-(trifluoro-methyl)pyridin-2-yl)methyl)-2-methyl-3-oxopiperazine-1-carboxamide] | 258
C[C@@H]1C(=O)NCCN1C(=O)NC(c1ccc(C#N)c(Cl)c1)c1cnc(C(F)(F)F)c(Cl)c1 (single isomer, unassigned) [Example 24B, (2R)-N-((S or R)-(3-chloro-4-cyano-phenyl)(5-chloro-6-(trifluoromethyl)pyridin-3-yl)methyl)-2-methyl-3-oxopiperazine-1-carboxamide] | 2.84
C[C@@H]1C(=O)NCCN1C(=O)NC(c1ccc(OCC(F)(F)F)nc1)c1ccc(F)c(F)c1 (single isomer, unassigned) [Example 6A, (2R)-N-((R or S)-(3,4-difluorophenyl)(6-(2,2,2-trifluoro-ethoxy)pyridin-3-yl)methyl)-2-methyl-3-oxopiperazine-1-carboxamide] | 20
C[C@@H]1C(=O)NCCN1C(=O)NC(c1ccc(F)c(Cl)c1)c1cnn(CC(F)(F)F)c1 (single isomer, unassigned) [Example 67A] | 890
CCC1C(=O)NCCN1C(=O)NC(c1ccc(C(F)(F)F)nc1)c1ccc(F)c(Cl)c1F (single isomer, unassigned) [Example 40B, N-((R or S)-(3-chloro-2,4-difluorophenyl)(6-(trifluoromethyl)pyridin-3-yl)methyl)-(S or R)-2-ethyl-3-oxopiperazine-1-carboxamide] | 10.5
C[C@@H]1C(=O)NCCN1C(=O)NC(c1ccc(C(C)(F)F)nc1)c1ccc(F)c(Cl)c1F (single isomer, unassigned) [Example 75B] | 2.95
O=C1CN(C(=O)NC(c2ccc(OCC(F)(F)F)nc2)c2ccc(F)c(Cl)c2)CCN1 (single isomer, unassigned) [Example 2B, N-((S or R)-(3-chloro-4-fluorophenyl)(6-(2,2,2-trifluoroethoxy)pyridin-3-yl)methyl)-3-oxopiperazine-1-carboxamide] | 123
C[C@@H]1C(=O)NCCN1C(=O)NC(c1cnn(-c2ccc(F)cc2)c1)c1ccc(F)c(Cl)c1F (single isomer, unassigned) [Example 65A, (2R)-N-((R or S)-(3-chloro-2,4-difluoro-phenyl)(1-(4-fluoro-phenyl)-1H-pyrazol-4-yl)methyl)-2-methyl-3-oxopiperazine-1-carboxamide] | 8.05
C[C@@H]1C(=O)NCCN1C(=O)NC(c1ccc(F)c(Cl)c1)c1ccn(C(F)F)n1 (single isomer, unassigned) [Example 66B] | 82.3
C[C@H]1C(=O)NCCN1C(=O)NC(c1ccc(F)c(Cl)c1)c1cccc(C(F)(F)F)n1 (single isomer, unassigned) [Example 45, (2S)-N-((R or S)-(3-chloro-4-fluoro-phenyl)(6-(trifluoro-methyl)pyridin-2-yl)methyl)-2-methyl-3-oxopiperazine-1-carboxamide] | 1700
